The values below come from patent US20210208130A1, “ASSAYS FOR CELL-BASED THERAPIES OR TREATMENTS” (The Regents of the University of California, priority 2018, published 2021).

In the experiment the test system is Human Retinoblastoma (hRB) Y79 (ATCC HTB-18) cells. As to the kind of experiment: Fluorescence-based (CellTiter-Blue, resazurin) cell viability potency assay with sodium butyrate insult. The conditions noted are these: 2, 4, 8 mM sodium butyrate; 72 hours incubation. The text has this: In the following examples, Human Retinoblastoma (hRB) Y79 (ATCC® HTB-18™) cells were expanded and maintained for use by culturing in ATCC®-formulated RPMI-1640 medium supplemented with 20% fetal bovine serum. The cells were maintained according to ATCC® recommendations. Human retinal progenitor cells (hRPCs) and human retinal pigment epithelium cells (hRPE cells) were isolated from 18-20 week human fetuses and propagated in standard medium (SM) comprising Advanced DMEM/F12 with 1×N−2 supplement, 1×GlutaMax-1, 20 ng/ml human FGF-basic protein and 20 ng/ml human EGF protein.
In the following experiments, conditioned medium (CM) was collected from hRPCs, hRB cells or hRPE grown in SM for 48 hours (with replacement of the SM after 24 hours). Cells were harvested and counted after each CM collection.
First, 12.5×10^3, 2.5×10^4, 5.0×10^4, 1.0×10^5 and 2.0×10^5 Human Retinoblastoma (hRB) Y79 (ATCC® HTB-18™) cells were plated in five separate wells of a 96 well assay plate and incubated in 50 μl SM. […] Resorufin is highly fluorescent, meaning that the fluorescence signal generated can be used to determine the viability of the cells incubated with Resazurin.
The fluorescence of each well was measured after incubation with resazurin. Fluorescence signals were read at an excitation wavelength of 520 nm and an emission wavelength of 580-640 nm. […]
In general terms: Resazurin is reduced to fluorescent resorufin, in cell work by metabolically active cells.

As to `CCCC(=O)[O-].[Na+]` [sodium butyrate], the “fluorescence signal (cell proliferation and viability) with higher concentrations of sodium butyrate” value was “decreased fluorescence signals”.
